# From patent publication US11325904B2, “Tropinol esters and related compounds to promote normal processing of APP” (BUCK INSTITUTE FOR RESEARCH ON AGING, priority 2011, dated 2022)
# Tested on: ectodomain of APP695 (MBP-eAPP230-624, eAPP230-624, TRX-eAPP575-624)
# Assay: Surface plasmon resonance (Biacore T100) binding to APP ectodomain fragments
# Procedure: We used surface plasmon resonance to assess binding of compound 14 to the APP ectodomain (eAPP) fragments was done using a Biacore T100. Biotinylated TRX-eAPP575-624 and other eAPP fragments were immobilized onto strepavidin-coated sensor CM5 chip.
# Surface plasmon resonance data was obtained with a Biacore T100 for 0-50 μM compound 14 flowed at 1 μl per min in 1% DMSO, 20 mM sodium phosphate, 125 mM sodium chloride pH 7.4 over a CM5 chip cross-linked with proteins containing fragments of the ectodomain of APP695. The three proteins were MBP-eAPP230-624—a fusion protein containing maltose binding protein and residues 230-624 of the ectodomain of APP (90-kDa), eAPP230-624—a protein that contains only residues 230-624 (45-kDa), and TRX-eAPP575-624—a fusion protein containing thioredoxin and residues 575-624 of the ectodomain (20-kDa). The proteins were produced as described in Libeu et al., (2011) J. Alzheimer's Dis., 25(3): 547-566. […] FIG. 11 compares the normalized response for the all three proteins. Comparison of the normalized curves between the proteins was done with PRISM (GraphPad Inc).
smiles,measurement,setting,value
Cc1nnc(C(=O)O[C@H]2C[C@H]3CC[C@@H](C2)N3C)o1 [Compound 14],binding to the ectodomain of APP,"0-50 μM compound, 1% DMSO, 20 mM sodium phosphate, 125 mM sodium chloride pH 7.4, CM5 chip",has affinity for APP and can directly bind to the ectodomain of APP
same,normalized response curves compared between the eAPP fragments,"MBP-eAPP230-624 vs eAPP230-624 vs TRX-eAPP575-624, comparison with PRISM",not significantly different
